The record followed here is ChEMBL document CHEMBL3120103, “CK2 inhibitor CX4945 induces sequential inactivation of proteins in the signaling pathways related with cell migration and suppresses metastasis of A549 human lung cancer cells” (Bioorg Med Chem Lett, 2013).

Each structure is given as a SMILES string. Calls of active or inactive are those of the source. The rule behind the calls is not given here. Bounds are passed on as bounds.

In series [1] the test system is NCI-H1299. As to the kind of experiment: Antimigratory activity against human H1299 cells after 24 hrs by wound-healing assay. The format is functional, cell-based.
In series [2] the test system is A549. Kind of series: Reduction in MMP9 expression in human A549 cells at 1 to 10 uM after 24 hrs by Western blot method. The format is functional, cell-based.
Series [3] relates to A549. As to the kind of experiment: Cytotoxicity against human A549 cells assessed as viable cells at 1 to 30 uM after 24 hrs by LDH assay. The format is cell-based. The note with it: a549, 24 h.
The test system of series [4] is NCI-H1299. Kind of series: Antiinvasive activity against human H1299 cells after 3 hrs by Boyden chamber invasion assay. The series is classed as functional, cell-based.
The test system of series [5] is A549. Kind of series: Antimigratory activity against human A549 cells after 24 hrs by wound-healing assay. The series is classed as functional, cell-based.
The nature of series [6]: Cytotoxicity against human A549 cells assessed as viable cells at 1 to 30 uM after 24 hrs by CCK8 assay. The format is cell-based. The note with it: read-out: Activity.
For series [7], the system named is A549. Kind of series: Antiinvasive activity against human A549 cells after 3 hrs by Boyden chamber invasion assay. The format is functional, cell-based.
Series [8] is described as follows: Cytotoxicity against human A549 cells assessed as viable cells at 1 to 30 uM after 3 hrs by CCK8 assay. The format is cell-based. The note with it: read-out: Activity.
Series [9] has as its system A549. As to the kind of experiment: Reduction in MMP2 expression in human A549 cells at 1 to 10 uM after 24 hrs by Western blot method. The format is functional, cell-based.

As to `O=C(O)c1ccc2c(c1)nc(Nc1cccc(Cl)c1)c1ccncc12` [SILMITASERTIB], the Activity result with NCI-H1299 [1] was “Dose-dependent effect”; in the series with A549 [3], “Non-toxic”; in the series with NCI-H1299 [4], “Dose-dependent effect”; in the series with A549 [5], “Dose-dependent effect”; in the series on A549 [7], “Dose-dependent effect”. For the same compound, the result with A549 [2] and with A549 [9] was inactive. Also, the viability at 24 h, up to 30 µM in series [6] is greater than 70%. For the same compound, the viability at 3 h, up to 30 µM in series [8] was greater than 70%.
